Common to all, as to experiment: relative viability (nuclei count vs DMSO), 5 days (fraction); higher = more cells survive
Compound in the assay “Wnt-C59 + Lapatinib”: CC1=NC=CC(=C1)C2=CC=C(C=C2)CC(=O)NC3=CC=C(C=C3)C4=CN=CC=C4 [Wnt-C59] + CS(=O)(=O)CCNCc1ccc(-c2ccc3ncnc(Nc4ccc(OCc5cccc(F)c5)c(Cl)c4)c3c2)o1 [Lapatinib] (partner 2 µM)
An outline of the steps: (§1)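 Relative viability divides the nuclei count in treated wells by that in vehicle wells. Lung cancer cell lines were seeded in 1536-well plates, dosed by pin tool the next day, and fixed and stained after 5 days in one step with final 0.05% Triton X-100, 1% formaldehyde and 1 ug/ml Hoechst. Dosing was a single drug or a fixed anchor-drug dose plus five library-drug doses (not always all listed) in √10 steps, and values are medians of duplicate plates imaged at 4×.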

Compound in the assay “Lapatinib + Palbociclib”: CS(=O)(=O)CCNCc1ccc(-c2ccc3ncnc(Nc4ccc(OCc5cccc(F)c5)c(Cl)c4)c3c2)o1 [Lapatinib] + CC(=O)c1c(C)c2cnc(Nc3ccc(N4CCNCC4)cn3)nc2n(C2CCCC2)c1=O [Palbociclib] (partner 0.5 µM)
A digest of the protocol:
as §1

Compound in the assay “Lapatinib + Alpelisib”: CS(=O)(=O)CCNCc1ccc(-c2ccc3ncnc(Nc4ccc(OCc5cccc(F)c5)c(Cl)c4)c3c2)o1 [Lapatinib] + Cc1nc(NC(=O)N2CCC[C@H]2C(N)=O)sc1-c1ccnc(C(C)(C)C(F)(F)F)c1 [Alpelisib] (partner 2 µM)
A digest of the protocol:
as §1

Compound in the assay “Lapatinib + Dasatinib”: CS(=O)(=O)CCNCc1ccc(-c2ccc3ncnc(Nc4ccc(OCc5cccc(F)c5)c(Cl)c4)c3c2)o1 [Lapatinib] + Cc1nc(Nc2ncc(C(=O)Nc3c(C)cccc3Cl)s2)cc(N2CCN(CCO)CC2)n1 [Dasatinib] (partner 0.075 µM)
A digest of the protocol:
as §1

As to UMC-11, the relative viability was found to be 0.911 with Wnt-C59 + Lapatinib (first compound 0.001 µM); 0.851 with Wnt-C59 + Lapatinib (first compound 0.01 µM); 1.03 with Wnt-C59 + Lapatinib (first compound 0.03162 µM); 0.749 with Wnt-C59 + Lapatinib (first compound 0.1 µM); 0.391 with Lapatinib + Palbociclib (first compound 0.02 µM); 0.347 with Lapatinib + Palbociclib (first compound 0.06325 µM). Besides, the relative viability in the assay with Lapatinib + Palbociclib (first compound 0.2 µM) came out at 0.301; in the assay with Lapatinib + Palbociclib (first compound 0.6325 µM) it was 0.282; with Lapatinib + Palbociclib (first compound 2 µM), 0.27; with Lapatinib + Alpelisib (first compound 0.02 µM) it was 0.861; with Lapatinib + Alpelisib (first compound 0.06325 µM), 0.933; in the assay with Lapatinib + Alpelisib (first compound 0.2 µM), 0.986. Moreover, the relative viability with Lapatinib + Alpelisib (first compound 0.6325 µM) stood at 0.887; with Lapatinib + Alpelisib (first compound 2 µM), 1.09; with Lapatinib + Dasatinib (first compound 0.02 µM), 0.45; in the assay with Lapatinib + Dasatinib (first compound 0.06325 µM), 0.404; with Lapatinib + Dasatinib (first compound 0.2 µM), 0.52; in the assay with Lapatinib + Dasatinib (first compound 0.6325 µM), 0.453. For the same cell line, the relative viability in the assay with Lapatinib + Dasatinib (first compound 2 µM) amounted to 0.421.
